# In patent publication US10457710B2, “Antimicrobial peptides, their variants and uses” (priority 2015, dated 2019):
# Where a SMILES comes first, the peptide text is derived from it. [ ]: non-standard residue; d: D form.
# Columns and labels:
# Type in all cases: cell-based
# [1] = system: clinical strains of S. pneumoniae; assay: MIC, microdilution, clinical strains; conditions: 0.02% BSA, 0.2% acetic acid
# Outline: (§1)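 Broth microdilution with inocula adjusted to 5.0×10^5 cfu/ml; peptides tested at 0.125 to 128 μg/ml and incubated at 37° C for 20 to 24 hours. Bacteria were grown in Mueller Hinton broth, yeasts in potato dextrose broth. MIC was the lowest concentration showing no visible growth.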
# [2] = system: clinical strains of E. coli; assay: MIC, microdilution, clinical strains; conditions: microdilution, Muller Hinton broth-cation adjusted, 0.02% BSA, 0.2% acetic acid
# Outline: as §1
# [3] = system: clinical strains of Serratia marcescens; assay: MIC, microdilution, clinical strains; conditions: 0.02% BSA, 0.2% acetic acid
# Outline: as §1
# [4] = system: clinical strains of Proteus mirabilis; assay: MIC, microdilution, clinical strains; conditions: 0.02% BSA, 0.2% acetic acid
# Outline: as §1
# [5] = system: clinical strains of S. aureus; assay: MIC, microdilution, clinical strains; conditions: 0.02% BSA, 0.2% acetic acid
# Outline: as §1
# [6] = system: clinical strains of K. pneumoniae; assay: MIC, microdilution, clinical strains; conditions: 0.02% BSA, 0.2% acetic acid
# Outline: as §1
# [7] = system: clinical strains of P. aeruginosa; assay: MIC, microdilution, clinical strains; conditions: 0.02% BSA, 0.2% acetic acid
# Outline: as §1
# [8] = system: clinical strains of E. cloacae; assay: MIC, microdilution, clinical strains; conditions: 0.02% BSA, 0.2% acetic acid
# Outline: as §1
# [9] = system: C. quillermondiae; assay: MIC, clinical yeast strains; conditions: clinical yeast strain 1; D-form peptide; concentrations tested 0.125 to 128 μg/ml
# Outline: (§2)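 MIC = lowest peptide concentration without visual growth after 20–24 h at 37° C. Range 0.125–128 μg/ml, inoculum 5.0×10^5 cfu/ml, microdilution format. Antifungal tests used potato dextrose broth; bacterial tests used MH broth.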
# [10] = system: clinical strains of Acinetobacter baumannii; assay: MIC, microdilution, clinical strains; design: unit: μg/ml; conditions: 0.02% BSA, 0.2% acetic acid
# Outline: as §1
# [11] = system: clinical strains of A. johnsonii; assay: MIC, microdilution, clinical strains; design: unit: μg/ml; conditions: Acinetobacter johnsonii strain 1, Muller Hinton broth-cation adjusted, 0.02% BSA, 0.2% acetic acid
# Outline: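 Broth microdilution in Potato dextrose broth, inoculum 5.0×10^5 cfu/ml, peptide 0.125–128 μg/ml, incubated at 37 °C for 20–24 h; MIC taken as lowest concentration without visible growth. A. johnsonii clinical strains were tested the same way in Mueller Hinton broth.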
# [12] = system: C. glabrata; assay: MIC, clinical yeast strains; conditions: D-form peptide, concentrations tested 0.125 to 128 μg/ml
# Outline: as §2
# [13] = system: C. parapsilosis; assay: MIC, clinical yeast strains; conditions: D-form peptide, concentrations tested 0.125 to 128 μg/ml
# Outline: as §2
# [14] = system: Candida albicans; assay: MIC, clinical yeast strains; conditions: D-form peptide, concentrations tested 0.125 to 128 μg/ml
# Outline: as §2
structure (smiles),measurement,setting,value
CC[C@@H](C)[C@@H](NC(=O)[C@@H](CCSC)NC(=O)[C@@H](C)NC(=O)[C@@H](CCCNC(=N)N)NC(=O)[C@@H](Cc1c[nH]c2ccccc12)NC(=O)[C@@H](CCCCN)NC(=O)[C@H](N)CCCNC(=N)N)C(=O)N[C@H](CCCNC(=N)N)C(=O)N[C@H](CC(C)C)C(=O)N[C@H](Cc1c[nH]cn1)C(=O)N[C@H](C)C(=O)N[C@H](CCCCN)C(=O)N[C@H](CCCNC(=N)N)C(=O)N[C@H](CC(C)C)C(=O)N[C@H](CCCNC(=N)N)C(=O)N[C@H](CCCCN)C(=O)O [Chain104D] (H-[dR][dK][dW][dR][dA][dM][dI][dR][dL][dH][dA][dK][dR][dL][dR][dK]-OH),Minimum inhibitory concentration,"[1]; Streptococcus pneumoniae strain 1, Muller Hinton broth-cation adjusted",4
same,Minimum inhibitory concentration,"[1]; Streptococcus pneumoniae strain 2, Muller Hinton broth-cation adjusted",2
same,Minimum inhibitory concentration,"[1]; Streptococcus pneumoniae strain 3, Muller Hinton broth-cation adjusted",1
same,Minimum inhibitory concentration,"[1]; Streptococcus pneumoniae strain 4, Muller Hinton broth-cation adjusted",4
same,Minimum inhibitory concentration,"[1]; Streptococcus pneumoniae strain 5, Muller Hinton broth-cation adjusted",1
same,Minimum inhibitory concentration,[2]; Escherichia coli strain 1,4
same,Minimum inhibitory concentration,[2]; Escherichia coli strain 2,4
same,Minimum inhibitory concentration,[2]; Escherichia coli strain 3,4
same,Minimum inhibitory concentration,[2]; Escherichia coli strain 4,4
same,Minimum inhibitory concentration,[2]; Escherichia coli strain 5,4
same,Minimum inhibitory concentration,"[3]; Serratia marcescens strain 1, Muller Hinton broth-cation adjusted",>128
same,Minimum inhibitory concentration,"[3]; Serratia marcescens strain 2, Muller Hinton broth-cation adjusted",>128
same,Minimum inhibitory concentration,"[3]; Serratia marcescens strain 3, Muller Hinton broth-cation adjusted",>128
same,Minimum inhibitory concentration,"[3]; Serratia marcescens strain 4, Muller Hinton broth-cation adjusted",>128
same,Minimum inhibitory concentration,"[3]; Serratia marcescens strain 5, Muller Hinton broth-cation adjusted",128
same,Minimum inhibitory concentration,"[4]; Proteus mirabilis strain 1, Muller Hinton broth-cation adjusted",>128
same,Minimum inhibitory concentration,"[4]; Proteus mirabilis strain 2, Muller Hinton broth-cation adjusted",32
same,Minimum inhibitory concentration,"[4]; Proteus mirabilis strain 3, Muller Hinton broth-cation adjusted",128
same,Minimum inhibitory concentration,"[4]; Proteus mirabilis strain 4, Muller Hinton broth-cation adjusted",>128
same,Minimum inhibitory concentration,"[4]; Proteus mirabilis strain 5, Muller Hinton broth-cation adjusted",>128
same,Minimum inhibitory concentration,"[5]; Staphylococcus aureus strain 1, Muller Hinton broth-cation adjusted",4
same,Minimum inhibitory concentration,"[5]; Staphylococcus aureus strain 2, Muller Hinton broth-cation adjusted",2
same,Minimum inhibitory concentration,"[5]; Staphylococcus aureus strain 3, Muller Hinton broth-cation adjusted",4
same,Minimum inhibitory concentration,"[5]; Staphylococcus aureus strain 4, Muller Hinton broth-cation adjusted",2
same,Minimum inhibitory concentration,"[5]; Staphylococcus aureus strain 5, Muller Hinton broth-cation adjusted",4
same,Minimum inhibitory concentration,"[6]; Klebsiella pneumoniae strain 1, Muller Hinton broth-cation adjusted",8
same,Minimum inhibitory concentration,"[6]; Klebsiella pneumoniae strain 2, Muller Hinton broth-cation adjusted",4
same,Minimum inhibitory concentration,"[6]; Klebsiella pneumoniae strain 3, Muller Hinton broth-cation adjusted",8
same,Minimum inhibitory concentration,"[6]; Klebsiella pneumoniae strain 4, Muller Hinton broth-cation adjusted",16
same,Minimum inhibitory concentration,"[6]; Klebsiella pneumoniae strain 5, Muller Hinton broth-cation adjusted",4
same,Minimum inhibitory concentration,"[7]; Pseudomonas aeruginosa strain 1, Muller Hinton broth-cation adjusted",4
same,Minimum inhibitory concentration,"[7]; Pseudomonas aeruginosa strain 2, Muller Hinton broth-cation adjusted",2
same,Minimum inhibitory concentration,"[7]; Pseudomonas aeruginosa strain 3, Muller Hinton broth-cation adjusted",4
same,Minimum inhibitory concentration,"[7]; Pseudomonas aeruginosa strain 4, Muller Hinton broth-cation adjusted",2
same,Minimum inhibitory concentration,"[7]; Pseudomonas aeruginosa strain 5, Muller Hinton broth-cation adjusted",1
same,Minimum inhibitory concentration,"[8]; Enterobacter cloacae strain 1, Muller Hinton broth-cation adjusted",4
same,Minimum inhibitory concentration,"[8]; Enterobacter cloacae strain 2, Muller Hinton broth-cation adjusted",4
same,Minimum inhibitory concentration,"[8]; Enterobacter cloacae strain 3, Muller Hinton broth-cation adjusted",8
same,Minimum inhibitory concentration,"[8]; Enterobacter cloacae strain 4, Muller Hinton broth-cation adjusted",4
same,Minimum inhibitory concentration,"[8]; Enterobacter cloacae strain 5, Muller Hinton broth-cation adjusted",2
same,"Minimum inhibitory concentration, C. quillermondiae strain 1",[9],4
same,Minimum inhibitory concentration,"[10]; Acinetobacter baumannii strain 1, Muller Hinton broth-cation adjusted",16
same,Minimum inhibitory concentration,"[10]; Acinetobacter baumannii strain 2, Muller Hinton broth-cation adjusted",8
same,Minimum inhibitory concentration,"[10]; Acinetobacter baumannii strain 3, Muller Hinton broth-cation adjusted",8
same,Minimum inhibitory concentration,"[10]; Acinetobacter baumannii strain 4, Muller Hinton broth-cation adjusted",4
same,Minimum inhibitory concentration,"[10]; Acinetobacter baumannii strain 5, Muller Hinton broth-cation adjusted",8
same,Minimum inhibitory concentration,[11],8
same,"Minimum inhibitory concentration, C. glabrata strain 1",[12]; clinical yeast strain 1,8
same,"Minimum inhibitory concentration, C. glabrata strain 2",[12]; clinical yeast strain 2,8
same,"Minimum inhibitory concentration, C. glabrata strain 3",[12]; clinical yeast strain 3,8
same,"Minimum inhibitory concentration, C. glabrata strain 4",[12]; clinical yeast strain 4,16
same,"Minimum inhibitory concentration, C. parapsilosis strain 1",[13]; clinical yeast strain 1,4
same,"Minimum inhibitory concentration, C. parapsilosis strain 2",[13]; clinical yeast strain 2,4
same,"Minimum inhibitory concentration, C. parapsilosis strain 3",[13]; clinical yeast strain 3,4
same,"Minimum inhibitory concentration, C. parapsilosis strain 4",[13]; clinical yeast strain 4,2
same,"Minimum inhibitory concentration, Candida albicans strain 1",[14]; clinical yeast strain 1,8
same,"Minimum inhibitory concentration, Candida albicans strain 2",[14]; clinical yeast strain 2,8
same,"Minimum inhibitory concentration, Candida albicans strain 3",[14]; clinical yeast strain 3,8
same,"Minimum inhibitory concentration, Candida albicans strain 4",[14]; clinical yeast strain 4,8
same,"Minimum inhibitory concentration, Candida albicans strain 5",[14]; clinical yeast strain 5,8
